For this test, the target named is T1, HDAC6 (Homo sapiens, UniProt Q9UBN7).
T1 construct: Full length human recombinant HDAC6 protein; made in house
T1 sequence (Q9UBN7 1-1215): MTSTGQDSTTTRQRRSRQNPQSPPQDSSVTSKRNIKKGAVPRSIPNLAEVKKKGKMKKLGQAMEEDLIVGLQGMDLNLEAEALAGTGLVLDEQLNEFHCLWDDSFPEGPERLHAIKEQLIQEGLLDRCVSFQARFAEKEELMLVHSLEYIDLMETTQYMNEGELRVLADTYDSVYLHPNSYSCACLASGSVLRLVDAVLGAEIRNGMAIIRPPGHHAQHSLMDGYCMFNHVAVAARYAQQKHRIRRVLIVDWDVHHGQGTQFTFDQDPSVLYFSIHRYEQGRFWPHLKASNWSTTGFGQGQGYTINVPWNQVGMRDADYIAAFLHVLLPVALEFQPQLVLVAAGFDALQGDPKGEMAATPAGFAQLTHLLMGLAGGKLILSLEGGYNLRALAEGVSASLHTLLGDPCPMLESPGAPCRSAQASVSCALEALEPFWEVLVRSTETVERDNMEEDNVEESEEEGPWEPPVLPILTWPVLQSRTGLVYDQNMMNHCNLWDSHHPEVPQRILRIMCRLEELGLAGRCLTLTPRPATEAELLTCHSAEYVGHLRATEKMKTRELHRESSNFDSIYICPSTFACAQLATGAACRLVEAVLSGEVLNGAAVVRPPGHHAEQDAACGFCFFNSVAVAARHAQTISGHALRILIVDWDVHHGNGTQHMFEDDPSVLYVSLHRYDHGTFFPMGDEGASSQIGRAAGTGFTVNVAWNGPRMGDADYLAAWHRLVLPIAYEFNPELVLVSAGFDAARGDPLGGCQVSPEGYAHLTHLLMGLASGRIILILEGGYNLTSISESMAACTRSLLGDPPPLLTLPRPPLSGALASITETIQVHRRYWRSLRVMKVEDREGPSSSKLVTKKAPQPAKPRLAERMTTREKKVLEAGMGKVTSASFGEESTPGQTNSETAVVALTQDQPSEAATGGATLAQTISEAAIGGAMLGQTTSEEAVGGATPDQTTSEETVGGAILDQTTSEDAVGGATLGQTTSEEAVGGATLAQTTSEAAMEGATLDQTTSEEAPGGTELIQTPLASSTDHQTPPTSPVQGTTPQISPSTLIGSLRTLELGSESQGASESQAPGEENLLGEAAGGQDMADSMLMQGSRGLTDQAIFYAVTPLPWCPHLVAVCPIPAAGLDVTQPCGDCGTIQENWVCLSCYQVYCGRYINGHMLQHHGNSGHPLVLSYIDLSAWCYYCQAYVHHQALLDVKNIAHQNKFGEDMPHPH
The test can be described thus: In vitro histone deacetylase assay: enzymatic HDAC6 assay by electrophoretic mobility shift. Type of test: biochemical. As to conditions: full length human recombinant HDAC6 1 nM, 2 μM peptide substrate RHKK(Ac)-NH2, 25° C., 12 concentrations; read-out: Inhibitory Concentration (IC50) against HDAC6, Activity Range. How it is done: The enzymatic HDAC6 assay was performed using electrophoretic mobility shift assay. […] The enzymatic reactions were assembled in 384-well plates in a total volume of 25 μL of a reaction buffer comprising. 100 mM HEPES, pH 7.5, 25 mM KCl, 0.1% bovine serum albumin, 0.01% Triton X-100, 1% DMSO (from compounds), 2 μM of the fluorescently labeled peptide substrate, and enzyme. The enzyme was added at a final concentration of 1 nM. The peptide substrate RHKK(Ac)-NH2 was used. The compounds were tested at 12 concentrations spaced by 3× dilution intervals. Negative control samples (0%-inhibition in the absence of inhibitor) and positive control samples (100%-inhibition) were assembled in replicates of four in each assay plate. The reactions were incubated at 25° C. and quenched by the addition of 45 μL of termination buffer (100 mM HEPES, pH 7.5, 0.01% Triton X-100, 0.05% SDS).
The terminated assay plates were analyzed on LabChip® 3000 microfluidic electrophoresis instrument (Perkin Elmer/Caliper Life Sciences). The fluorescence intensity of the electrophoretically separated de-acetylated product and substrate peptide was measured. Activity in each sample was determined as the product to sum ratio (PSR):P/(S+P), where P is the peak height of the product peptide and S is the peak height of the substrate peptide. Percent inhibition (Pinh) is determined using the following equation:
Pinh=(PSR0%−PSRinh)/(PSR0%−PSR100%)*100, where PSRinh is the product sum ratio in the presence of inhibitor, PSR0% is the average product sum ration in the absence of inhibitor, and PSR100% is the average product sum ratio in 100%-inhibition control samples. The IC50 values of inhibitors were determined by fitting the %-inhibition curves with 4 parameter dose-response models using XLfit 4 software.
Take `O=C(NO)c1ccc2c(c1)OC[C@@H](c1cccnc1)N(C(=O)C1CCOCC1)C2` (single isomer, unassigned): the IC50 was no more than 100 nM.
Regarding `O=C(NO)c1ccc2c(c1)OC[C@@H](c1ccccc1C(F)(F)F)N(C(=O)C1CCOCC1)C2` (single isomer, unassigned), the IC50 was greater than 500 nM.
On to `O=C(NO)c1ccc2c(c1)OC[C@@H](c1cccc(C(F)(F)F)c1)N(C(=O)C1CCOCC1)C2` (single isomer, unassigned), for which the IC50 was in the range of 100 to 500 nM.
For the compound `O=C(NO)c1ccc2c(c1)OC[C@H](c1cccnc1)N(C(=O)C1CCOCC1)C2` (single isomer, unassigned), the IC50 lay in the range of 100 to 500 nM.
In the case of `O=C(NO)c1ccc2c(c1)OC[C@H](c1ccccc1)N(C(=O)[C@@H]1CCCOC1)C2` (single isomer, unassigned), the IC50 was no more than 100 nM.
Regarding `O=C(NO)c1ccc2c(c1)OC[C@H](c1ccccc1)N(C(=O)[C@@H]1CCOC1)C2` (single isomer, unassigned), the IC50 is no more than 100 nM.
On to `O=C(NO)c1ccc2c(c1)OC[C@H](c1ccccc1)N(C(=O)[C@H]1CCCOC1)C2` (single isomer, unassigned), for which the IC50 was no more than 100 nM.
Turning to `O=C(NO)c1ccc2c(c1)OC[C@H](c1ccccc1)N(C(=O)[C@H]1CCOC1)C2` (single isomer, unassigned), the IC50 is no more than 100 nM.
As to `O=C(NO)c1ccc2c(c1)OC[C@H](c1ccccc1C(F)(F)F)N(C(=O)C1CCOCC1)C2` (single isomer, unassigned), the IC50 is no more than 100 nM.
The figure for `O=C(NO)c1ccc2c(c1)OC[C@H](c1cccc(C(F)(F)F)c1)N(C(=O)C1CCOCC1)C2` (single isomer, unassigned) is no more than 100 nM; for `O=C(NO)c1ccc2c(c1)OC[C@H](c1ccccc1)N(C(=O)C1CC3CCC(C1)O3)C2` (stereo partly drawn) [(3S)-4-(8-oxabicyclo[3.2.1]octane-3-carbonyl)-N-hydroxy-3-phenyl-2,3,4,5-tetrahydrobenzo[f][1,4]oxazepine-8-carboxamide] it is no more than 100 nM; for `O=C(NO)c1ccc2c(c1)OC[C@H](c1ccccc1)N(C(=O)C1CCCO1)C2` (stereo partly drawn) [(3S)-N-hydroxy-3-phenyl-4-(tetrahydrofuran-2-carbonyl)-2,3,4,5-tetrahydrobenzo[f][1,4]oxazepine-8-carboxamide] it is no more than 100 nM.
`O=C(NO)c1ccc2c(c1)OC[C@@H](c1ccccc1F)N(C(=O)C1CCOCC1)C2` [(R)-3-(2-fluorophenyl)-N-hydroxy-4-(tetrahydro-2H-pyran-4-carbonyl)-2,3,4,5-tetrahydrobenzo[f][1,4]oxazepine-8-carboxamide]: the IC50 was 100 to 500 nM.
The figure for `O=C(NO)c1ccc2c(c1)OC[C@@H](c1ccccc1)N(C(=O)C1CCOCC1)C2` [(R)-N-hydroxy-3-phenyl-4-(tetrahydro-2H-pyran-4-carbonyl)-2,3,4,5-tetrahydrobenzo[f][1,4]oxazepine-8-carboxamide] is greater than 500 nM.
As for `O=C(NO)c1ccc2c(c1)OC[C@H](c1ccccc1F)N(C(=O)C1CCOCC1)C2` [(S)-3-(2-fluorophenyl)-N-hydroxy-4-(tetrahydro-2H-pyran-4-carbonyl)-2,3,4,5-tetrahydrobenzo[f][1,4]oxazepine-8-carboxamide], the IC50 is no more than 100 nM.
The figure for `O=C(NO)c1ccc2c(c1)OC[C@H](c1cccc(Cl)c1)N(C(=O)C1CCOCC1)C2` [(S)-3-(3-chlorophenyl)-N-hydroxy-4-(tetrahydro-2H-pyran-4-carbonyl)-2,3,4,5-tetrahydrobenzo[f][1,4]oxazepine-8-carboxamide] is no more than 100 nM; for `O=C(NO)c1ccc2c(c1)OC[C@H](c1cccc(F)c1)N(C(=O)C1CCOCC1)C2` [(S)-3-(3-fluorophenyl)-N-hydroxy-4-(tetrahydro-2H-pyran-4-carbonyl)-2,3,4,5-tetrahydrobenzo[f][1,4]oxazepine-8-carboxamide] it is no more than 100 nM; for `O=C(NO)c1ccc2c(c1)OC[C@H](c1ccc(Cl)cc1)N(C(=O)C1CCOCC1)C2` [(S)-3-(4-chlorophenyl)-N-hydroxy-4-(tetrahydro-2H-pyran-4-carbonyl)-2,3,4,5-tetrahydrobenzo[f][1,4]oxazepine-8-carboxamide] it is no more than 100 nM.

The values are drawn from US11274084B2, “3-aryl-4-amido-bicyclic [4,5,0] hydroxamic acids as HDAC inhibitors” (Valo Health, Inc., priority 2015, dated 2022).
